According to ChEMBL document CHEMBL1201862, “PubChem BioAssay data set” (2004):
Calls of active or inactive are those of the source.

Experiments:
[1] = biological target: Voltage-gated inwardly rectifying potassium channel KCNH2 (Homo sapiens, UniProt Q12809); details: Potency;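 note: confirmatory quantitative high-throughput screen measuring inhibition of hERG channel activity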
[2] = biological target: Paired box protein Pax-8 (Homo sapiens, UniProt Q06710); test: inhibitors of PAX8-driven TPO luciferase reporter, dose response, RMG-I cells, cherry-pick (AID 687027); assay type: functional, cell-based;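 note: luciferase reporter driven by Pax8 target thyroperoxidase promoter measured by SteadyGlo luminescence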
[3] = biological target: T1, Microphthalmia-associated transcription factor (Homo sapiens, UniProt O75030); test: TRPM1 promoter luciferase signal decrease, dose response, MITF inhibitor project, cell-based, SK-MEL-5, cherry-picked, set 3 (AID 493073); assay type: functional
T1 sequence (O75030 whole entry): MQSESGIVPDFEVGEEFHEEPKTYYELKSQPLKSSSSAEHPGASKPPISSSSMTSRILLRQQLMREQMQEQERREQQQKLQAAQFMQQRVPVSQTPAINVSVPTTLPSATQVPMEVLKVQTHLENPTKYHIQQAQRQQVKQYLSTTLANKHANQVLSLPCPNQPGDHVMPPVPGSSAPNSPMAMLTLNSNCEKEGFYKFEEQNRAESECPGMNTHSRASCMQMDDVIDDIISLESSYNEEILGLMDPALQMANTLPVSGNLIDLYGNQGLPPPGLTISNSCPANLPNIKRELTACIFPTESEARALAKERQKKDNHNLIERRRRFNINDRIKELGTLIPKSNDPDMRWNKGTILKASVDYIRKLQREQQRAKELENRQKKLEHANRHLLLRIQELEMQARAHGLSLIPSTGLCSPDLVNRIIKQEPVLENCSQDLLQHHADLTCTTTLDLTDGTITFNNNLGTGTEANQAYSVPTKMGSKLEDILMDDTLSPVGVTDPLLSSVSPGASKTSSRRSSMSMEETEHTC

[4] = test system: HEK293; test: cells; details: Homo sapiens
[5] = test system: HEK293; test: cells; details: Homo sapiens; remark: listed apart in the source
[6] = Fluorescence-based cell-based high throughput dose response assay for inhibitors of the interaction of nucleotide-binding oligomerization domain containing 2 (NOD2) and the receptor-interacting serine-threonine kinase 2 (RIPK2).; assay type: functional; details: Homo sapiens
[7] = inhibitors of firefly luciferase expression or activity, dose response, H4 neuroglioma cells, luminescence (AID 1990); assay type: functional, cell-based
[8] = inhibitors of SNCA 5'UTR-driven reporter translation, confirmation, H4 neuroglioma cells, luminescence (AID 1988); assay type: functional, cell-based
[9] = test system: H9c2; test: cells; assay type: functional, cell-based; details: Rattus norvegicus, H9c2, Myocardium;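 note: confirmatory concentration-response retest of ultra-high-throughput screening hits for modulation of myocardial damage; cell death induced by hydrogen peroxide oxidative stress; compound pretreatment for 60 min then peroxide exposure for 2 h; potency is for protecting the cells against peroxide damage rather than for killing them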
[10] = cytotoxicity toward NIH3T3 fibroblasts, dose response, counter-screen, cell-based, ATP luminescence, mouse fibroblasts (AID 2010); assay type: functional;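 note: cells exposed to compound for about 90 hours before reading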
[11] = test system: Vero; test: cells; assay type: functional, cell-based; details: Chlorocebus sabaeus
[12] = test system: Vero; test: cells; assay type: functional; details: Chlorocebus sabaeus
[13] = inhibitors of intracellular T. cruzi replication, confirmation, NIH3T3 host cells, beta-gal luminescence (AID 2044); assay type: functional, cell-based;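 note: intracellular parasites grown in NIH/3T3 mouse fibroblasts as host cells; luminescent beta-galactosidase reporter signal from transgenic T. cruzi replicating inside host cells; inhibitors lower the luminescence signal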
[14] = Luminescence Cell-Based Dose Response HTS to Identify Inhibitors of 5'UTR Stem-Loop Driven Prion Protein mRNA Translation in H4 Neuroglioblastoma Cells. [Related pubchem assays: 1827 (Project Summary), 1813 (Primary HTS)]; assay type: functional
[15] = biological target: Heat shock protein HSP 90-alpha (Homo sapiens, UniProt P07900); assay type: functional, organism-based
[16] = biological target: Large T antigen (Simian virus 40, UniProt P03070); assay type: functional, Betapolyomavirus macacae;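 note: Confirmatory-stage PubChem screen for compounds that inhibit SV40 T antigen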
Large T antigen, sequence (P03070 whole entry): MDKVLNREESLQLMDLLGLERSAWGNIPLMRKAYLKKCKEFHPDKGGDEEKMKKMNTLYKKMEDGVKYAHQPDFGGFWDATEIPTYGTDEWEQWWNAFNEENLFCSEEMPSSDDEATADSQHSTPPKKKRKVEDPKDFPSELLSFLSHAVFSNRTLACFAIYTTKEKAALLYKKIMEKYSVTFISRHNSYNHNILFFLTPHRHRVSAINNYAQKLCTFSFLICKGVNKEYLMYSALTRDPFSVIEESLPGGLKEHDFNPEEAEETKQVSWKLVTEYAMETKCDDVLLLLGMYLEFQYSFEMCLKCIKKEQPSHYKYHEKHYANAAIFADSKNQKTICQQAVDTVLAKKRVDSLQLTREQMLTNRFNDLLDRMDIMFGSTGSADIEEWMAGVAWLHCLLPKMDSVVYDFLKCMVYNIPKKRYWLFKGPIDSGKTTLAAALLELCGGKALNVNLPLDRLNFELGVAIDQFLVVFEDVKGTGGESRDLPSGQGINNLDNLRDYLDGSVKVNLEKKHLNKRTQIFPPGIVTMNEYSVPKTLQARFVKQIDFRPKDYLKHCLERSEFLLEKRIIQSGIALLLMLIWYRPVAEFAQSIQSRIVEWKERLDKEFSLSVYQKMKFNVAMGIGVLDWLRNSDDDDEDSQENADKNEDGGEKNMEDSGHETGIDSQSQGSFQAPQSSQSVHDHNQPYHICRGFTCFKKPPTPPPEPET

[17] = biological target: T2, Polyadenylate-binding protein 1 (Homo sapiens, UniProt P11940); test: PABP1 MLLE–PAM2 binding inhibitor potency, dose response, biochemical, fluorescence polarization, FITC-PAM2 peptide (AID 602259); assay type: functional; details: read-out: IC50_Mean
T2 sequence (P11940 whole entry): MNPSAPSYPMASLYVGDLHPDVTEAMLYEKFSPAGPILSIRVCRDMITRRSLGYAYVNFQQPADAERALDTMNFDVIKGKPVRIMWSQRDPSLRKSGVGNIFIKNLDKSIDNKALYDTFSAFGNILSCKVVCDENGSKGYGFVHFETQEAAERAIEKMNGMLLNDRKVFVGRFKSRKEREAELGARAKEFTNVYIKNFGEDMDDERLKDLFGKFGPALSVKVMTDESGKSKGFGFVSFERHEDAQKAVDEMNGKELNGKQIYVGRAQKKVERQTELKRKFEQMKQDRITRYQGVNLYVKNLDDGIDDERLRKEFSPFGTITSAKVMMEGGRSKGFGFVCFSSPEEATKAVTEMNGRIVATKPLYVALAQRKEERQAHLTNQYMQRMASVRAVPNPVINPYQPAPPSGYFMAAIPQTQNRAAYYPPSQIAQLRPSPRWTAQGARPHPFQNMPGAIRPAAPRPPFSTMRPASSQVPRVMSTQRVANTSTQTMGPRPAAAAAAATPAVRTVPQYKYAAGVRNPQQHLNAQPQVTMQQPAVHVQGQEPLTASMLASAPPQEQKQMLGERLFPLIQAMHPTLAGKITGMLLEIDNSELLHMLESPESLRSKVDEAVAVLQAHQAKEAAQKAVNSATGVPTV

[18] = biological target: T2, Polyadenylate-binding protein 1; test: PABP1 MLLE–PAM2 interaction inhibitors, dose response, miRNA deadenylation inhibitor project, biochemical, fluorescence polarization, Cy5-PAM2 peptide, secondary (AID 602260); assay type: functional; details: read-out: IC50_Mean
[19] = biological target: Dual specificity tyrosine-phosphorylation-regulated kinase 1A (Rattus norvegicus, UniProt Q63470); assay type: biochemical, Homo sapiens
[20] = biological target: DNA topoisomerase (Yersinia pestis, UniProt A0A2S9PM60); test: Y. pestis Topo-I inhibitors, cleavage product readout, dose response, biochemical, cherry-pick (AID 588525)
DNA topoisomerase, sequence (A0A2S9PM60 whole entry): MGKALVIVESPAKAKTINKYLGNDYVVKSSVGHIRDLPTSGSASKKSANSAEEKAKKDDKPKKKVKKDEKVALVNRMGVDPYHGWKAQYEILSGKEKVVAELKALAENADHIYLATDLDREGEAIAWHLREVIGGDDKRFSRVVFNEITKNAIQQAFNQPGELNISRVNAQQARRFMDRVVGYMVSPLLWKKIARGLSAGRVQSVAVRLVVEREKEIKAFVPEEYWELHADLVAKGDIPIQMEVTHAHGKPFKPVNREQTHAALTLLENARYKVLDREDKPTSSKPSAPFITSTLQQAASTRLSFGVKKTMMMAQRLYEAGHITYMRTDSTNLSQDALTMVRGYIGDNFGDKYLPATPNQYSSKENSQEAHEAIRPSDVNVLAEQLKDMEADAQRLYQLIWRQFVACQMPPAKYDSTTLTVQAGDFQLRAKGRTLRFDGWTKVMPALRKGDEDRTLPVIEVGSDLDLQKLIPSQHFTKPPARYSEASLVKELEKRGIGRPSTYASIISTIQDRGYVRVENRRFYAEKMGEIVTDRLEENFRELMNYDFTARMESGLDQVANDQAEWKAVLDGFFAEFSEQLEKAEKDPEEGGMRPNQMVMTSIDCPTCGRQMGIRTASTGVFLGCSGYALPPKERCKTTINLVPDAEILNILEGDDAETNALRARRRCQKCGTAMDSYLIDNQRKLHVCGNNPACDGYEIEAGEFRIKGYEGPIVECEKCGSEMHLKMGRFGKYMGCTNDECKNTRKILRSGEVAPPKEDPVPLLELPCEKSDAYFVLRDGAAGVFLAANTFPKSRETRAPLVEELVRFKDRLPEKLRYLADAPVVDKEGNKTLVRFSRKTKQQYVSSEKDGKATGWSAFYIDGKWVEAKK

[21] = biological target: CAAX prenyl protease 2 (Homo sapiens, UniProt Q9Y256); test: human Rce1 protease inhibitors, dose response, biochemical, yeast membranes, quenched-peptide fluorescence, cherry-pick (AID 588849)
CAAX prenyl protease 2 (Homo sapiens, UniProt Q9Y256), sequence (Q9Y256 whole entry): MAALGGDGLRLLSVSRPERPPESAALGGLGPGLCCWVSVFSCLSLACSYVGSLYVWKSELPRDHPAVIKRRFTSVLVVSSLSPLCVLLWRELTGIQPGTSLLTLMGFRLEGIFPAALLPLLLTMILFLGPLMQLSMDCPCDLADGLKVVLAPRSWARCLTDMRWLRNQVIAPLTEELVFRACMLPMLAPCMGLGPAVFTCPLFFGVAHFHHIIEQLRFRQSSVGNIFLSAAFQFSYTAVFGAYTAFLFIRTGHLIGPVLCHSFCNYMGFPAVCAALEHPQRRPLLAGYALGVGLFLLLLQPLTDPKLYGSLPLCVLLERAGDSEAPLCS

[22] = test system: HEK293; test: cytotoxicity in HEK293T NF-kB-Luc cells, SAR follow-up, cytotoxicity control for NF-kB activator project, cell-based, resazurin fluorescence (AID 493251); assay type: functional; details: Homo sapiens
[23] = test system: HEK293; test: SAR Analysis of small molecule inhibitors of T-cell specific antigen receptor-induced NF-kB activation in a HEK-293T cell line using a luminescence assay - Set 2. [Related pubchem assays (depositor defined):AID435003, AID435012, AID489026]; assay type: functional, cell-based; details: Homo sapiens
[24] = test system: Jurkat; test: SAR Analysis of small molecule inhibitors of T-cell specific antigen receptor-induced NF-kB activation in a Jurkat cell line using a luminescence assay - Set 2. [Related pubchem assays (depositor defined):AID435003, AID435012, AID465]; assay type: functional, cell-based; details: Homo sapiens
[25] = biological target: Glucose-6-phosphate 1-dehydrogenase (Homo sapiens, UniProt P11413); test: human G6PD enzyme inhibitors, dose response, selectivity assay for P. falciparum G6PD inhibitor project, biochemical, fluorescence (AID 504792); assay type: functional
Glucose-6-phosphate 1-dehydrogenase, sequence (P11413 whole entry): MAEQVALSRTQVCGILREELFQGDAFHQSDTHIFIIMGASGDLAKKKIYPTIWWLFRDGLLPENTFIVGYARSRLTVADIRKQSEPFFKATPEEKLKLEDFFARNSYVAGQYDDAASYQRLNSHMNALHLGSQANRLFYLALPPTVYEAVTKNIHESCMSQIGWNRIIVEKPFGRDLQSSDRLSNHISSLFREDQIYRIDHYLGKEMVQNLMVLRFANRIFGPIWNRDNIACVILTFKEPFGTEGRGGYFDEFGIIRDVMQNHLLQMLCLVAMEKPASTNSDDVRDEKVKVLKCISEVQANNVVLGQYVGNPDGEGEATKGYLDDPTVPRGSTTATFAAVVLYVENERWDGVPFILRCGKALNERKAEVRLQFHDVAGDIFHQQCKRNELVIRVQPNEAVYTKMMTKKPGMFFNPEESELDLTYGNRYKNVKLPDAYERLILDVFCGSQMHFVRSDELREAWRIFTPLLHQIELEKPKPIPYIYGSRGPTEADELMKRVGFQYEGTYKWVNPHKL

[26] = biological target: Trypsin (Sus scrofa, UniProt P00761); test: porcine trypsin inhibitors, dose response, selectivity assay for Rce1 protease inhibitor project, biochemical, quenched peptide fluorescence, cherry-pick (AID 488789)
Trypsin, sequence (P00761 whole entry): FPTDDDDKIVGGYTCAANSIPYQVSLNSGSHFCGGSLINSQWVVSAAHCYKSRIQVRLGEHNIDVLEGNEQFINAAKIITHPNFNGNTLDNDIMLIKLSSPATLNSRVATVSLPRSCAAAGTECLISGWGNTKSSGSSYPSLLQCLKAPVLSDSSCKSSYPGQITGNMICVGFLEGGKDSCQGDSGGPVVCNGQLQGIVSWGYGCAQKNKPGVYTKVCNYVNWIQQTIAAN

[27] = biological target: T3, Ubiquitin-conjugating enzyme E2 N (Homo sapiens, UniProt P61088); assay type: functional;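 note: Dose-response confirmation in a TR-FRET assay detecting UBC13-driven polyubiquitin chain formation, inhibition measured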
T3 sequence (P61088 whole entry): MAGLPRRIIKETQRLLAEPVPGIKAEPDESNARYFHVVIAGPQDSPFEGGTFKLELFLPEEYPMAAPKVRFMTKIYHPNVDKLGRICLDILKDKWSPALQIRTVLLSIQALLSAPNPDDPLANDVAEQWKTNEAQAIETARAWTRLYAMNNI

[28] = biological target: CAAX prenyl protease 2 (Saccharomyces cerevisiae S288c, UniProt Q03530); assay type: biochemical
CAAX prenyl protease 2 (Saccharomyces cerevisiae S288c, UniProt Q03530), sequence (Q03530 whole entry): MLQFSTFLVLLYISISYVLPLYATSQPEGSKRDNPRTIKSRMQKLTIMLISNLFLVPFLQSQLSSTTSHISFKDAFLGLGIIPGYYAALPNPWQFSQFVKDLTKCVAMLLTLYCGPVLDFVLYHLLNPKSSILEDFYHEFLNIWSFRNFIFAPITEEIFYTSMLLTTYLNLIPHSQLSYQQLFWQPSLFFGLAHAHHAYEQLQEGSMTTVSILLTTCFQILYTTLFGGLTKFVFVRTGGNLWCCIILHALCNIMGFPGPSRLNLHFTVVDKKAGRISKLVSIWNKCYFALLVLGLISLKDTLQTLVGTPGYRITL

[29] = test system: BJ; test: cells; assay type: functional, cell-based; details: Homo sapiens
[30] = cytotoxicity toward DRD oncogenic fibroblasts, dose response, cell-based, non-viral oncogenic, luminescence (AID 1934); assay type: functional; details: Homo sapiens
[31] = A Cell Based Secondary Assay To Explore Cytotoxicity of Compounds that Sensitize Mycobacterium Tuberculosis to Beta-Lactam Antibiotics.; assay type: functional
[32] = test system: BJ; test: cytotoxicity toward BJ-TERT-LT-ST fibroblasts, dose response, cell-based, RAS-independent, luminescence (AID 1935); assay type: functional; details: Homo sapiens;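 note: BJ fibroblasts immortalized with TERT plus LT and ST oncogenes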
[33] = test system: A-375; test: A375 melanoma cell viability reduction, dose response, counter-screen for MITF modulator project, cherry-pick samples, set 2 (AID 540335); assay type: functional, cell-based; details: Homo sapiens
[34] = test system: BJ; test: cytotoxicity toward BJ-TERT fibroblasts, dose response, cell-based, RAS-independent, luminescence (AID 1933); assay type: functional; details: Homo sapiens
[35] = test system: A-375; test: MITF: Counter assay: A375 proliferation Measured in Cell-Based System Using Plate Reader - 2084-03_Inhibitor_Dose_DryPowder_Activity. [Related pubchem assays (depositor defined):AID488944]; assay type: functional; details: Homo sapiens

Voltage-gated inwardly rectifying potassium channel KCNH2, sequence (Q12809 whole entry): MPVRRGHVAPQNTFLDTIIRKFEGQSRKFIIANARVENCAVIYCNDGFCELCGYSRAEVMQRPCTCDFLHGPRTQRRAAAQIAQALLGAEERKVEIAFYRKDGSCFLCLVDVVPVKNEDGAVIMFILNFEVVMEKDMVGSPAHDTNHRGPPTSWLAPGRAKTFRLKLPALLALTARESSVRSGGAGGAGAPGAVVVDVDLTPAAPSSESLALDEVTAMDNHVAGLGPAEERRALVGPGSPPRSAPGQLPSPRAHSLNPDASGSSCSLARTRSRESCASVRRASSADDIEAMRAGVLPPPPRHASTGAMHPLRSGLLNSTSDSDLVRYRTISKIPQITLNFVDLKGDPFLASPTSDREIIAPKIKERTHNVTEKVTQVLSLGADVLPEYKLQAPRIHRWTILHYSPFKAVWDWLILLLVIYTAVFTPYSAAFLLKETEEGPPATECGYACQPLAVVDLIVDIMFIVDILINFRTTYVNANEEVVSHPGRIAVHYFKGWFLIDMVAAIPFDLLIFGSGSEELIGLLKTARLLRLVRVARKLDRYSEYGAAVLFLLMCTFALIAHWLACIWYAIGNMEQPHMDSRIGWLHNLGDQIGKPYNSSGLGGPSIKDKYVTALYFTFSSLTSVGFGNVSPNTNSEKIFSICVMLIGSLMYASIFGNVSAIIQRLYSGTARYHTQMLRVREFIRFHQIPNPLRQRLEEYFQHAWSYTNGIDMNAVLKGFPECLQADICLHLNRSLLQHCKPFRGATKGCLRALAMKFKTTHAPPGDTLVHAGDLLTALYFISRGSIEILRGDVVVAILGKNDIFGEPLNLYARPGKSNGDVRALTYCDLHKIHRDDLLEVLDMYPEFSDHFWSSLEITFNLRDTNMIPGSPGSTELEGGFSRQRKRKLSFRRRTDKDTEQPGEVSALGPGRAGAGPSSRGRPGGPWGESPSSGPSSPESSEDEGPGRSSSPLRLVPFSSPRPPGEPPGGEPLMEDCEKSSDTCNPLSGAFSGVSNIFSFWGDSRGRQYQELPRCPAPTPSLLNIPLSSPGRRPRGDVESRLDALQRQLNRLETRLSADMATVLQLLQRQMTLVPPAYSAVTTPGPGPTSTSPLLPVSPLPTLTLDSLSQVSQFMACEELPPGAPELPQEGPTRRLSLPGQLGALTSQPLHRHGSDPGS

Structure (SMILES): N=C1C=CC(=C(c2ccc(N)cc2)c2ccc(N)cc2)C=C1
- AC50 [1]: 44.7 µM (inconclusive)

Structure (SMILES): O=C(Cn1ncc(Cl)c(Cl)c1=O)Nc1ccc2c(c1)OCO2
- AC50 [2]: 4.07 µM (active)
- AC50 [3]: 13.2 µM (active)
- EC50 [4]: > 59.6 µM (inactive)
- EC50 [5]: > 59.6 µM (inactive)
- IC50 [6]: 11.8 µM (inactive)

Structure (SMILES): CC(Oc1cccc(Cl)c1)C(=O)Nc1nc(-c2ccccn2)cs1 (stereo not drawn)
- EC50 [7]: 10.4 µM (active)
- EC50 [8]: 9.63 µM (active)
- IC50 [9]: > 79 µM (inactive)
- EC50 [10]: 6.81 µM (active)
- IC50 [11]: > 25 µM (active)
- CC50 [12]: 15.8 µM (active)
- EC50 [13]: 822 nM (active)
- EC50 [14]: 11.9 µM (active)

Structure (SMILES): O=[N+]([O-])c1ccc(NC(c2ccccc2)c2ccc3cccnc3c2O)cc1 (stereo not drawn)
- AC50 [15]: 3.92 µM (active)
- IC50 [11]: > 25 µM (active)
- CC50 [12]: 4.02 µM (active)

Structure (SMILES): OC1=C2Sc3ccccc3N=C2CCC1
- IC50 [16]: 9.55 µM (active)
- IC50 [17]: 59 µM (inactive)
- IC50 [18]: 35.2 µM (inactive)
- AC50 [19]: 8.45 µM (active)

Structure (SMILES): CCCOc1ccc(C(=O)Nc2ccc(S(=O)(=O)N3C[C@@H]4C[C@@H](C3)c3cccc(=O)n3C4)cc2)cc1
- AC50 [20]: 3.3 µM (active)

Structure (SMILES): Cc1ccc(-c2nc(CN3CCCCC3)cc(CN3CCCCC3)c2O)cc1
- AC50 [21]: 10.1 µM (active)

Structure (SMILES): CN1CCN(c2ccccc2NC(=O)c2ccc([N+](=O)[O-])o2)CC1
- IC50 [22]: 23.6 µM (inactive)
- AC50 [3]: 4.95 µM (active)
- IC50 [23]: 15.6 µM (active)
- IC50 [24]: 24.8 µM (inactive)

Structure (SMILES): Clc1ccc(C(c2ccccc2Cl)C(Cl)(Cl)Cl)cc1 (stereo not drawn)
- AC50 [1]: 8.91 µM (inconclusive)

Structure (SMILES): CN(C)c1ccc2nc3ccc(=O)cc-3sc2c1
- AC50 [20]: 4.67 µM (active)
- IC50 [25]: > 80 µM (inactive)

Structure (SMILES): COc1ccc(-c2cc(C(=O)NCCCN3CCCC3=O)c3ccccc3n2)cc1
- AC50 [26]: 9.31 µM (active)
- IC50 [27]: > 20 µM (inactive)
- AC50 [21]: 23.3 µM (active)
- AC50 [28]: 18 µM (active)

Structure (SMILES): COc1ccc2[nH]cc(C(=O)CCl)c2c1
- EC50 [29]: 7.02 µM (active)
- EC50 [30]: 8.64 µM (active)
- AC50 [3]: 5.65 µM (active)
- CC50 [31]: 5.65 µM (active)
- EC50 [32]: 7.84 µM (inconclusive)
- AC50 [33]: 45.9 µM (active)
- EC50 [34]: 4.61 µM (active)

Structure (SMILES): NC(=NOC(=O)c1ccncc1)c1cccc([N+](=O)[O-])c1
- AC50 [35]: > 35 µM (active)
- AC50 [33]: > 35 µM (active)
